US20100099762A1, “COMBINATION THERAPY” (THE MENTAL HEALTH RESEARCH INSTITUTE OF VICTORIA, priority 2006, published 2010)

Tested on: total glutathione levels
Assay: Total glutathione in striatum and liver of rats after CHX depletion
Format: in vivo, Sprague-Dawley rats
Details: 400 mg/kg i.p. 90 minutes after CHX 75 mg/kg; killed 1 hour after treatment
Description: Male Sprague-Dawley rats aged nine weeks and weighing an average of 390 g, were used in the study. Animals were maintained on a twelve hour light-dark cycle with water and food ad libitum. Two animals were housed per cage with room temperature maintained at 22° C.
All pharmacological agents were administered by intraperitoneal injection (i.p.) in a volume of 1 ml/kg, except where otherwise stated. All agents were prepared using saline as a diluent. Brain GSH depletion was performed using cyclohexene-1-one (CHX), administered at 75 mg/kg. Animals were returned to their cage for 90 minutes prior to administration of N-acetyl cysteine (NAC) or N-acetyl cysteine amide (NACA or “AD4”). Animals were killed by decapitation 1 hour after NACA or NAC treatment.
Frontal cortex, striatum and liver samples were immediately excised on ice, weighed and sonicated in SSA buffer (5% sulfosalicylic acid in 100 mM disodium hydrogen orthophosphate, 100 mM sodium dihydrogen orthophosphate and 1 mM EDTA, pH 7.5, 5 mL/g wet tissue). The samples were subsequently centrifuged (22×10^3 g for 10 minutes, 4° C.) and the […] was taken and frozen at −80° C. until analysed.
Total glutathione levels (μmol GSH/gram tissue) were determined in all samples. Samples were assayed according to Baker et al. (1990). Reduced glutathione standards ranging from 0 to 320 ρmol of GSH in 50 μL were prepared in a background buffer identical to the samples (SSA buffer) and then treated in parallel with samples. 50 μl of sample or standard was placed on a 96-well microtiter plate with 100 μL of assay reagent (final concentration in well; 0.15 mM DTNB, 0.2 mM NADPH, 1.0 U glutathione reductase/mL). Plates were assayed for a total of 2 minutes at 414 nm using a Multiskan MCC/340 MK II plate reader and Genesis V3.05 computer software. All chemicals were purchased from Sigma-Aldrich. Statistical evaluation of the data was conducted using analysis of variance (ANOVA).

`CC(=O)N[C@@H](CS)C(=O)O` [NAC, N-acetyl cysteine] was tested, and the “Total glutathione levels in the brain striatum after CHX depletion” value was “rescue” and the “Total glutathione levels in the liver after CHX depletion” value was “rescue”.
